Results as given in ChEMBL document CHEMBL5233290, “Anulamycins A-F, Cinnamoyl-Containing Peptides from a Lake Sediment Derived Streptomyces” (J Nat Prod, 2023).
≈ marks a conversion by molar mass, not a printed value.

Experiments:
[1] = tested on: Staphylococcus epidermidis; experiment: Antibacterial activity against Staphylococcus epidermidis ATCC12228 assessed as inhibition of bacterial growth incubated for 18 hrs by 2-fold serial dilution method; settings: ATCC12228, 18 h
Escherichia coli = experiment: Antibacterial activity against Escherichia coli ATCC35218 assessed as inhibition of bacterial growth incubated for 18 hrs by 2-fold serial dilution method; type: functional
Staphylococcus aureus = experiment: Antibacterial activity against Staphylococcus aureus ATCC 43300 assessed as inhibition of bacterial growth incubated for 18 hrs by 2-fold serial dilution method; type: functional
K562 = experiment: Cytotoxicity against human K562 cells assessed as reduction in cell viability incubated for 72 hrs by CCK8 assay; type: functional, cell-based; settings: K562, 72 h
Bacillus subtilis = experiment: Antibacterial activity against Bacillus subtilis E168 assessed as inhibition of bacterial growth incubated for 18 hrs by 2-fold serial dilution method; type: functional
A549 = experiment: Cytotoxicity against human A549 cells assessed as reduction in cell viability incubated for 72 hrs by CCK8 assay; type: functional, cell-based; settings: A549, 72 h

SMILES	MIC [1]	MIC (Escherichia coli)	MIC (Staphylococcus aureus)	MIC (Bacillus subtilis)	IC50 (K562)	IC50 (A549)
C/C=C\c1ccccc1/C=C/C(=O)N[C@@H]1C(=O)N[C@@H](C)C(=O)N[C@@H]([C@H](C)C(=O)O)C(=O)NCC(=O)N[C@@H]([C@@H](O)c2ccccc2)C(=O)N2CCC[C@H]2C(=O)N[C@@H]([C@@H](O)c2ccc(OC)cc2)C(=O)N[C@H](Cc2c[nH]c3ccccc23)C(=O)N[C@@H](O)C(=O)N[C@H](CC(C)C)C(=O)N[C@H]([C@@H](O)C(C)C)C(=O)O[C@@H]1C	32 µM (≈ 47.5 µg/mL)	> 128 µM	16 µM (≈ 23.7 µg/mL)	16 µM (≈ 23.7 µg/mL)	> 10 µM	> 10 µM
C/C=C\c1ccccc1/C=C\C(=O)N[C@H](C(=O)N[C@@H](C)C(=O)N[C@@H](CC(=O)O)C(=O)NCC(=O)N[C@H](C(=O)N1CCC[C@H]1C(=O)N[C@H](C(=O)N[C@H](Cc1c[nH]c2ccccc12)C(N)=O)[C@@H](O)c1ccc(OC)cc1)[C@@H](O)c1ccccc1)[C@@H](C)O	> 128 µM	> 128 µM	64 µM (≈ 75 µg/mL)	> 128 µM	> 10 µM	> 10 µM
C/C=C\c1ccccc1/C=C/C(=O)N[C@H](C(=O)N[C@@H](C)C(=O)N[C@@H](CC(=O)O)C(=O)NCC(=O)N[C@H](C(=O)N1CCC[C@H]1C(=O)N[C@H](C(=O)N[C@H](Cc1c[nH]c2ccccc12)C(N)=O)[C@@H](O)c1ccc(OC)cc1)[C@@H](O)c1ccccc1)[C@@H](C)O	> 128 µM	> 128 µM	64 µM (≈ 75 µg/mL)	> 128 µM	> 10 µM	> 10 µM
NC[C@H]1O[C@H](O[C@H]2[C@H](O)[C@@H](O[C@H]3O[C@H](CO)[C@@H](O)[C@H](N)[C@H]3O)[C@H](N)C[C@@H]2N)[C@H](O)[C@@H](O)[C@@H]1O [KANAMYCIN]	< 2 µM	< 2 µM	< 2 µM	< 2 µM		

The next lines start with results.

MIC [1]	MIC (Escherichia coli)	MIC (Staphylococcus aureus)	MIC (Bacillus subtilis)	SMILES	IC50 (K562)	IC50 (A549)
64 µM (≈ 94.1 µg/mL)	> 128 µM	32 µM (≈ 47 µg/mL)	48 µM (≈ 70.5 µg/mL)	C/C=C\c1ccccc1/C=C/C(=O)N[C@@H]1C(=O)N[C@@H](C)C(=O)N[C@@H](CC(=O)O)C(=O)NCC(=O)N[C@@H]([C@@H](O)c2ccccc2)C(=O)N2CCC[C@H]2C(=O)N[C@@H]([C@@H](O)c2ccc(OC)cc2)C(=O)N[C@H](Cc2c[nH]c3ccccc23)C(=O)N[C@@H](O)C(=O)N[C@H](CC(C)C)C(=O)N[C@H]([C@@H](O)C(C)C)C(=O)O[C@@H]1C	> 10 µM	> 10 µM
64 µM (≈ 74.7 µg/mL)	> 128 µM	32 µM (≈ 37.4 µg/mL)	32 µM (≈ 37.4 µg/mL)	C/C=C\c1ccccc1/C=C/C(=O)N[C@H](C(=O)N[C@@H](C)C(=O)N[C@H](C(N)=O)[C@H](C)C(=O)N1CC(=O)N[C@@H]([C@@H](O)c2ccccc2)C(=O)N2CCC[C@H]2C(=O)N[C@@H]([C@@H](O)c2ccc(OC)cc2)C(=O)N[C@H](Cc2c[nH]c3ccccc23)C1=O)[C@@H](C)O	> 10 µM	> 10 µM
16 µM (≈ 18.4 µg/mL)	> 128 µM	16 µM (≈ 18.4 µg/mL)	16 µM (≈ 18.4 µg/mL)	C/C=C\c1ccccc1/C=C/C(=O)N/C(=C\C)C(=O)N[C@@H](C)C(=O)N[C@H](C(N)=O)[C@H](C)C(=O)N1CC(=O)N[C@@H]([C@@H](O)c2ccccc2)C(=O)N2CCC[C@H]2C(=O)N[C@@H]([C@@H](O)c2ccc(OC)cc2)C(=O)N[C@H](Cc2c[nH]c3ccccc23)C1=O	> 10 µM	> 10 µM
128 µM (≈ 148 µg/mL)	> 128 µM	64 µM (≈ 73.8 µg/mL)	64 µM (≈ 73.8 µg/mL)	C/C=C\c1ccccc1/C=C/C(=O)N[C@H](C(=O)N[C@@H](C)C(=O)N[C@@H](CC(=O)N1CC(=O)N[C@@H]([C@@H](O)c2ccccc2)C(=O)N2CCC[C@H]2C(=O)N[C@@H]([C@@H](O)c2ccc(OC)cc2)C(=O)N[C@H](Cc2c[nH]c3ccccc23)C1=O)C(N)=O)[C@@H](C)O	> 10 µM	> 10 µM
64 µM (≈ 74.7 µg/mL)	> 128 µM	32 µM (≈ 37.4 µg/mL)	64 µM (≈ 74.7 µg/mL)	C/C=C\c1ccccc1/C=C\C(=O)N[C@H](C(=O)N[C@@H](C)C(=O)N[C@H](C(N)=O)[C@H](C)C(=O)N1CC(=O)N[C@@H]([C@@H](O)c2ccccc2)C(=O)N2CCC[C@H]2C(=O)N[C@@H]([C@@H](O)c2ccc(OC)cc2)C(=O)N[C@H](Cc2c[nH]c3ccccc23)C1=O)[C@@H](C)O	> 10 µM	> 10 µM
